Measurements from ChEMBL document CHEMBL1201862, “PubChem BioAssay data set” (2004).
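How tested: cells in 96-well plates exposed to compound for 48 hours at five concentrations. GI50: concentration for 50% inhibition of growth.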 Calls of active or inactive are those of the source. No stated cut-off is given here; in the data, active = GI50 up to about 1.1 µM and inactive = higher.

Columns and labels:
Test in all cases: growth of human tumour cells (NCI), 48 h
786-0 = tested on: 786-0
A498 = tested on: A498
A549 = tested on: A549
ACHN = tested on: ACHN
CCRF-CEM = tested on: CCRF-CEM
COLO 205 = tested on: COLO 205
DLD-1 = tested on: DLD-1
DMS-114 = tested on: DMS-114
DMS-273 = tested on: DMS-273
EKVX = tested on: EKVX
HCC 2998 = tested on: HCC 2998
HCT-116 = tested on: HCT-116
HCT-15 = tested on: HCT-15
HL-60 = tested on: HL-60
HOP-18 = tested on: HOP-18
HOP-62 = tested on: HOP-62
HOP-92 = tested on: HOP-92
HT-29 = tested on: HT-29
IGROV-1 = tested on: IGROV-1
K562 = tested on: K562
KM-20L2 = tested on: KM-20L2
KM12 = tested on: KM12
LOX IMVI = tested on: LOX IMVI
LXFL 529 = tested on: LXFL 529
M14 = tested on: M14
M19-MEL = tested on: M19-MEL
MOLT-4 = tested on: MOLT-4
Malme-3M = tested on: Malme-3M
NCI-H23 = tested on: NCI-H23
NCI-H460 = tested on: NCI-H460
NCI-H522 = tested on: NCI-H522
OVCAR-3 = tested on: OVCAR-3
OVCAR-4 = tested on: OVCAR-4
OVCAR-5 = tested on: OVCAR-5
OVCAR-8 = tested on: OVCAR-8
RPMI-8226 = tested on: RPMI-8226
RXF 393 = tested on: RXF 393
SF-268 = tested on: SF-268
SF-295 = tested on: SF-295
SF-539 = tested on: SF-539
SK-MEL-28 = tested on: SK-MEL-28
SK-MEL-2 = tested on: SK-MEL-2
SK-OV-3 = tested on: SK-OV-3
SN12C = tested on: SN12C
SNB-19 = tested on: SNB-19
SNB-75 = tested on: SNB-75
SNB-78 = tested on: SNB-78
SW-620 = tested on: SW-620
TK-10 = tested on: TK-10
U-251 = tested on: U-251
UACC-257 = tested on: UACC-257
UACC-62 = tested on: UACC-62
UO-31 = tested on: UO-31
NCI-H226 = tested on: NCI-H226
SK-MEL-5 = tested on: SK-MEL-5
SR = tested on: SR
XF498 = tested on: XF498
CAKI-1 = tested on: CAKI-1
MCF7 = tested on: MCF7
NCI/ADR-RES = tested on: NCI/ADR-RES

Measured: GI50

COc1cccc(NC(=O)CC(=O)N2N=C(n3ccc4ccccc43)CC2c2ccccc2)c1 (stereo unspecified)
inactive: 786-0 > 100 µM | A498 > 100 µM | A549 > 100 µM | ACHN > 100 µM | CCRF-CEM > 100 µM | COLO 205 > 100 µM | DLD-1 > 100 µM | DMS-114 > 100 µM | DMS-273 > 100 µM | EKVX > 100 µM | HCC 2998 > 100 µM | HCT-116 > 100 µM | HL-60 > 100 µM | HOP-18 > 100 µM | HOP-62 > 100 µM | HOP-92 55.6 µM | HT-29 > 100 µM | IGROV-1 > 100 µM | K562 > 100 µM | KM-20L2 > 100 µM | KM12 > 100 µM | LOX IMVI > 100 µM | LXFL 529 > 100 µM | M14 > 100 µM | M19-MEL > 100 µM | MOLT-4 > 100 µM | Malme-3M > 100 µM | NCI-H23 > 100 µM | NCI-H460 > 100 µM | NCI-H522 > 100 µM | OVCAR-3 > 100 µM | OVCAR-4 > 100 µM | OVCAR-5 > 100 µM | OVCAR-8 > 100 µM | RPMI-8226 > 100 µM | RXF 393 > 100 µM | SF-268 > 100 µM | SF-295 > 100 µM | SF-539 > 100 µM | SK-MEL-28 > 100 µM | SK-MEL-2 > 100 µM | SK-OV-3 > 100 µM | SN12C > 100 µM | SNB-19 > 100 µM | SNB-75 71.3 µM | SNB-78 > 100 µM | SW-620 > 100 µM | TK-10 > 100 µM | U-251 > 100 µM | UACC-257 > 100 µM | UACC-62 > 100 µM | UO-31 > 100 µM
> 100 µM: HCT-15

O=C(Oc1ccc(Cl)cc1[N+](=O)[O-])c1ccccc1
inactive: A498 > 100 µM | A549 > 100 µM | ACHN > 100 µM | CCRF-CEM 73.6 µM | COLO 205 > 100 µM | DLD-1 > 100 µM | DMS-114 > 100 µM | DMS-273 > 100 µM | EKVX > 100 µM | HCC 2998 > 100 µM | HCT-116 > 100 µM | HL-60 65.6 µM | HOP-18 > 100 µM | HOP-62 > 100 µM | HOP-92 > 100 µM | HT-29 > 100 µM | IGROV-1 > 100 µM | K562 > 100 µM | KM-20L2 > 100 µM | KM12 > 100 µM | LOX IMVI > 100 µM | LXFL 529 > 100 µM | M14 > 100 µM | M19-MEL > 100 µM | MOLT-4 > 100 µM | Malme-3M > 100 µM | NCI-H226 92.9 µM | NCI-H23 69.2 µM | NCI-H460 > 100 µM | OVCAR-3 69.5 µM | OVCAR-4 43.4 µM | OVCAR-5 57.1 µM | OVCAR-8 > 100 µM | RPMI-8226 91.4 µM | RXF 393 24.1 µM | SF-268 > 100 µM | SF-295 > 100 µM | SF-539 > 100 µM | SK-MEL-28 > 100 µM | SK-MEL-2 > 100 µM | SK-MEL-5 16 µM | SK-OV-3 > 100 µM | SN12C > 100 µM | SNB-19 > 100 µM | SNB-75 90.8 µM | SNB-78 > 100 µM | SR > 100 µM | SW-620 > 100 µM | TK-10 > 100 µM | U-251 38.5 µM | UACC-257 > 100 µM | UACC-62 > 100 µM | UO-31 86.5 µM
> 100 µM: HCT-15
active: XF498 0.0435 µM

CC(C)=CC1C(C(=O)O)C1(C)C (stereo unspecified) [CHRYSANTHEMIC ACID]
> 750 µM: HCT-15
inactive: A498 24 µM | A549 > 750 µM | CAKI-1 643 µM | CCRF-CEM > 750 µM | COLO 205 > 750 µM | DLD-1 > 750 µM | DMS-114 > 750 µM | DMS-273 > 750 µM | EKVX > 750 µM | HCC 2998 > 750 µM | HCT-116 > 750 µM | HL-60 > 750 µM | HOP-18 197 µM | HOP-62 > 750 µM | HOP-92 520 µM | HT-29 > 750 µM | IGROV-1 > 750 µM | K562 > 750 µM | KM-20L2 > 750 µM | KM12 > 750 µM | LOX IMVI > 750 µM | M19-MEL > 750 µM | MCF7 > 750 µM | MOLT-4 > 750 µM | Malme-3M 746 µM | NCI-H226 75 µM | NCI-H23 > 750 µM | NCI-H460 > 750 µM | NCI-H522 > 750 µM | NCI/ADR-RES > 750 µM | OVCAR-3 > 750 µM | OVCAR-4 > 750 µM | OVCAR-5 > 750 µM | OVCAR-8 > 750 µM | RPMI-8226 > 750 µM | RXF 393 > 750 µM | SF-268 > 750 µM | SF-295 > 750 µM | SF-539 > 750 µM | SK-MEL-28 > 750 µM | SK-MEL-2 > 750 µM | SK-MEL-5 > 750 µM | SK-OV-3 > 750 µM | SN12C > 724 µM | SNB-19 > 750 µM | SNB-75 > 750 µM | SW-620 > 750 µM | U-251 > 750 µM | UACC-257 > 750 µM | UACC-62 > 750 µM | UO-31 > 750 µM | XF498 50.6 µM
